Data set [1] deals with T1, tau-tau binding: truncated tau (residues 297-390; dGA) on solid phase, full-length tau (T40) in aqueous phase (Homo sapiens, UniProt P10636).
T1 construct: truncated tau (residues 297-390; dGA); full-length tau (T40) was added in the aqueous phase
The experiment in a line: In vitro assay for establishing B50 (tau-tau binding). The settings on record: concentration required to inhibit tau-tau binding by 50%; mean ± SE, number of replications in parentheses; NE = no effect when tested to 500 μM. An excerpt:
Briefly, a fragment of tau corresponding to the core repeat domain, which has been adsorbed to a solid phase substrate, is able to capture soluble full-length tau and bind tau with high affinity. This association confers stability against proteolytic digestion of the aggregated tau molecules.
The aqueous phase binding buffer contained 0.05% Tween-20 and 1% gelatine in phosphate-buffered saline (pH7.4).
The concentration of compound required to inhibit the tau-tau binding by 50% is referred to as the B50 value.

The subject of a further data set is fibroblast cells (3T6). Particulars: for LD50: cell numbers after 24 hrs exposure, lactate dehydrogenase assay kit, mean ± SE, number of replications in parentheses; for RxI: therapeutic index, RxI=LD50/EC50.
The subject of data set [2] is fibroblast cells (3T6) expressing full-length tau (T40) and the 12 kD PHF-core tau fragment. The data set is described as follows: Cell-based assay for establishing EC50 (inhibition of generation of the 12 kD tau fragment). The source says:
In essence, fibroblast cells (3T6) express full-length tau (“T40”) under control of an inducible promotor, and low constitutive levels of the PHF-core tau fragment (12 kD fragment).
This is referred to as the EC50 value.

Structures can show the parent of a compound that is named as a salt. A value given as a limit tells only on which side of the number the result lay.

The term IC50 denotes the concentration that gives 50% inhibition. Broadly, the EC50 is the concentration needed to bring the measured effect to its halfway point. Read a low EC50 as higher potency in that assay.

T1 sequence (P10636 614-707): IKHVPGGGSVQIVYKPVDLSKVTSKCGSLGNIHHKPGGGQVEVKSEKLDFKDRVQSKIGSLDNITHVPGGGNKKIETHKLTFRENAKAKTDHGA

Take `O=[N+]([O-])[O-].c1cc2cc3ccc(N4CCCCC4)cc3[o+]c2cc1N1CCCCC1` [Compound AG, 3,6-Bis-piperidino-xanthylium nitrate]: the IC50 in data set [1] was found to be 257 ± 50.3 µM. In the data set with fibroblast cells (3T6), the LD50 is on record as 13.8 ± 6.2 (8) μM and the RxI worked out at 12. Moreover, the response in data set [2] was half-maximal at 1.12 ± 0.75 µM (EC50).

Consider `CCN(CC)c1ccc2nc3ccc(N(C)C)cc3nc2c1.Cl` [AM, 3-Diethylamino-7-dimethylaminophenazinium chloride], for which the IC50 in data set [1] was determined as 634 µM. Besides, in the data set on fibroblast cells (3T6), the LD50 is 93 ± 19 (6) μM and the RxI worked out at 85. Also, in data set [2], the EC50 is 1.1 ± 0.24 µM.

With `CC[N+](CC)=c1ccc2nc3ccc(N(C)C)cc3oc-2c1` [AN, 3-Diethylamino-7-dimethylaminooxazinium perchlorate], the IC50 in data set [1] was > 500 µM. In the data set with fibroblast cells (3T6), the LD50 is listed as 167 ± 29 (6) μM and the RxI was 309. Further, a half-maximal effect in data set [2] (EC50) was put at 0.54 ± 0.08 µM.

In the case of `Cl.Cl.c1cc2c(cc1N1CCCC1)Oc1cc(N3CCCC3)ccc1C2` [Compound AJ, 3,6-Bis-pyrrolidino xanthene dihydrochloride], the IC50 in data set [1] is > 500 µM. For the same molecule, in the data set with fibroblast cells (3T6), the LD50 is recorded as 125 ± 57 (10) μM and the RxI was determined as 334. This molecule also registered an EC50 in data set [2] of 0.37 ± 0.1 µM.

Regarding `Cl.Cl.c1cc2c(cc1N1CCOCC1)Oc1cc(N3CCOCC3)ccc1C2` [Compound AI, 3,6-Bis-morpholino xanthene dihydrochloride], the IC50 in data set [1] is > 500 µM. In addition, in the data set with fibroblast cells (3T6), the LD50 is reported as 280 ± 121 (10) μM and the RxI is listed as 17. The molecule further gave an EC50 in data set [2] of 16 ± 11 µM.

Turning to `O=[N+]([O-])[O-].c1cc2cc3ccc(N4CCOCC4)cc3[o+]c2cc1N1CCOCC1` [Compound AF, 3,6-Bis-morpholino-xanthylium nitrate], in data set [1], the IC50 was 187 ± 28.3 µM. In the data set on fibroblast cells (3T6), the LD50 is 144 ± 67 (10) μM and the RxI was determined as 7. For the same molecule, it took 22 ± 4.2 µM to reach a half-maximal effect in data set [2] (EC50).

`O=[N+]([O-])[O-].c1cc2cc3ccc(N4CCCC4)cc3[o+]c2cc1N1CCCC1` [Compound AH, 3,6-Bis-pyrrolidino-xanthylium nitrate]: in data set [1], the IC50 was 129 ± 15.5 µM. Also, in the data set with fibroblast cells (3T6), the LD50 is reported as 121 ± 52 (12) μM and the RxI amounted to 465. For the same molecule, the EC50 in data set [2] came out at 0.26 ± 0.073 µM.

For `CCN(CC)c1ccc2c(-c3ccc([N+](=O)[O-])cc3)c3ccc(N(CC)CC)cc3[o+]c2c1.O=[N+]([O-])[O-]` [Compound AD, 3,6-Bis-diethylamino-9-(4-nitrophenyl)xanthylium nitrate], in the data set on fibroblast cells (3T6), the LD50 was 19 ± 9 (5) μM and the RxI is 54. The molecule further had an EC50 in data set [2] of 0.35 ± 0.1 µM.

On to `Cl.Cl.c1cc2c(cc1N1CCCCC1)Oc1cc(N3CCCCC3)ccc1C2` [Compound AK, 3,6-Bis-piperidino xanthene dihydrochloride], for which the IC50 in data set [1] was determined as 284 ± 101 µM. Besides, in the data set with fibroblast cells (3T6), the LD50 is 44 ± 26 (8) μM and the RxI is reported as 69. In data set [2], this molecule returned an EC50 of 0.64 ± 0.27 µM.

With `CC1(C)CCN2CCC(C)(C)c3c4c(cc1c32)C=c1cc2c3c(c1O4)C(C)(C)CC[N+]=3CCC2(C)C` [Compound AE, 1,1,7,7,11,11,17,17-Octamethyl-2,3,6,7,12,13,16,17-octahydro-1H,5H,11H,15H-diquinolizino[1,9-bc;1′,9′-hi]xanthylium nitrate], the IC50 in data set [1] was 324 ± 87.1 µM. Moreover, in the data set with fibroblast cells (3T6), the LD50 is on record as 21 ± 8 (7) μM and the RxI was 412. Moreover, in data set [2], a half-maximal response (EC50) required 0.051 ± 0.012 µM.

As to `CCN(CC)c1cc2oc3cc(N(CC)CC)cc4oc5cc(=[N+](CC)CC)cc6oc(c1)c2c(c34)c65` [AL, 2,6,10-tris-diethylamino-4,8,12-trioxatrianguleum hexafluorophosphate], the IC50 in data set [1] amounted to 8.5 ± 0.9 µM. For the same molecule, in the data set on fibroblast cells (3T6), the LD50 is 8 ± 4 (6) μM and the RxI turned out to be 62. It took 0.13 ± 0.07 µM to reach a half-maximal effect in data set [2] (EC50).

Consider `CCc1c2ccc(N(CC)CC)cc2[o+]c2cc(N(CC)CC)ccc12.[Cl-]` [Compound J, 9-Ethyl-3,6-bis-diethylamino Xanthylium Chloride], for which the IC50 in data set [1] is > 500 µM. For the same molecule, in the data set with fibroblast cells (3T6), the LD50 is reported as 17 ± 3 (10) μM and the RxI was 1545. In addition, a half-maximal response in data set [2] (EC50) required 0.011 ± 0.006 µM.

Take `CCN(CC)c1ccc2cc3ccc(N(CC)CC)cc3[s+]c2c1.[I-]` [K, 3,6-Bis(diethylamino)thioxanthylium Iodide]: in data set [1], the IC50 was > 500 µM. In addition, in the data set on fibroblast cells (3T6), the LD50 is listed as 21.2 ± 12 (3) μM and the RxI was found to be 91. In data set [2], this molecule gave an EC50 of 0.23 ± 0.13 µM.

Consider `CN(C)c1ccc2nc3ccc(=[N+](C)C)cc-3oc2c1` [O, 3,7-bis(dimethylamino)oxazinium chloride], for which, in data set [1], the IC50 amounted to 190 ± 33.2 µM. Also, in the data set with fibroblast cells (3T6), the LD50 was 115 ± 17 (9) μM and the RxI is given as 29. This molecule yielded an EC50 in data set [2] of 3.9 ± 3.5 µM.

`CN(C)c1ccc2cc3ccc(N(C)C)cc3[s+]c2c1.[Cl-].[Cl-].[Cl-].[Zn+2]` [L, 3,6-bis(dimethylamino)thioxanthylium zinc trichloride]: in data set [1], the IC50 was 21.7 ± 2.7 µM. In the data set on fibroblast cells (3T6), the LD50 is recorded as 22 ± 8.6 (3) μM and the RxI came to 73. In data set [2], it took 0.3 µM to reach a half-maximal effect (EC50).

As to `FC(F)(F)C1=c2cc3c4c(c2Oc2c1cc1c5c2CCCN5CCC1)CCC[N+]=4CCC3` [C, 8-(trifluoromethyl)-2,3,5,6,11,12,14,15-octahydro-1H,4H,10H,13H-diquinolizino[9,9a,1-bc;9′,9a′1′-hi]xanthylium perchlorate], the IC50 in data set [1] was 461 ± 130 µM. Further, in the data set on fibroblast cells (3T6), the LD50 was 5.99 ± 2.6 (4) μM and the RxI is 13. In addition, the EC50 in data set [2] came out at 0.47 µM.

For the molecule `CCN(CC)c1ccc(-c2c3ccc(=[N+](CC)CC)cc-3oc3cc(N(CC)CC)ccc23)cc1` [Compound AC], in data set [1], the IC50 came to 129 ± 11.9 µM. Further, in the data set with fibroblast cells (3T6), the LD50 is listed as 14.5 ± 8.4 (8) μM and the RxI was 34. Also, a half-maximal response in data set [2] (EC50) required 1.43 ± 0.14 µM.

As to `CCN(CC)c1ccc2c(c1)Oc1cc(N(CC)CC)ccc1C2` [Compound H, 3,6-bis-diethylamino xanthene dihydrochloride], the IC50 in data set [1] was > 500 µM. Also, in the data set on fibroblast cells (3T6), the LD50 is reported as 113 ± 18 (11) μM and the RxI is recorded as 2093. For the same molecule, a half-maximal response in data set [2] (EC50) required 0.054 ± 0.01 µM.

With `[Cl-].c1c2c3c(c4[o+]c5c6c7c(cc5cc14)CCCN7CCC6)CCCN3CCC2` [Compound A, 2,3,6,7,12,13,16,17-Octahydro-1H,5H,11H,15H-diquinolizino[1,9-bc:1′,9′-hi]xanthylium chloride], the IC50 in data set [1] turned out to be 33.8 ± 5.2 µM. In the data set on fibroblast cells (3T6), the LD50 is listed as 19 ± 2.7 (22) μM and the RxI worked out at 3115. The EC50 in data set [2] came out at 0.0061 ± 0.0024 µM.

For `Cc1cc(N(C)C)cc2[s+]c3cc(N(C)C)cc(C)c3nc12` [DMMTC, reference compound], the IC50 in data set [1] was determined as 3.4 ± 0.2 µM. In the data set on fibroblast cells (3T6), the LD50 is 2.7 ± 1.2 (6) μM and the RxI was 67. In data set [2], this molecule came in with an EC50 of 0.04 ± 0.004 µM.

As for `CN(C)c1ccc2nc3ccc(=[N+](C)C)cc-3[nH]c2c1` [N, 3,7-Bis(dimethylamino)phenazinium chloride], the IC50 in data set [1] is 93.1 ± 17 µM. Besides, in the data set with fibroblast cells (3T6), the LD50 is on record as 136 ± 19.3 (4) μM.

Turning to `O=[N+]([O-])[O-].c1c2c3c(c4[o+]c5c6c7c(cc5cc14)CCCN7CCC6)CCCN3CCC2` [Compound B, 2,3,6,7,12,13,16,17-Octahydro-1H,5H,11H,15H-diquinolizino[1,9-bc:1′,9′-hi]xanthylium nitrate], the IC50 in data set [1] was determined as 254 ± 26.4 µM. In addition, in the data set with fibroblast cells (3T6), the LD50 is given as 30.8 ± 4.6 (4) μM and the RxI worked out at 3802.

In data set [2], `CN(C)c1ccc2nc3ccc(N(C)C)cc3[s+]c2c1` [MTC, reference compound] displayed an EC50 of 0.59 ± 0.04 µM.

These data come from patent US8658665B2, “3,6-disubstituted xanthylium salts and use thereof in treatment of tauopathies” (WisTa Laboratories Ltd., priority 2008, dated 2014).
